Experimental data from patent EP1105728B1, “MODULATING MULTIPLE LINEAGE KINASE PROTEINS” (CEPHALON, INC., priority 1998, dated 2000).
Values joined by “and” are separate entries in the source; they are usually repeats but may differ in a detail not shown here. Equal entries are not always repeated. Where two headings read alike, the source gives them in different places. Marks after values point to notes of the source that are not given here.

Tests used:
[1] = test system: substantia nigra tyrosine hydroxylase immunoreactive neurons; test: MPTP model: substantia nigra tyrosine hydroxylase immunoreactive neurons; format: in vivo, mice; details: MPTP 40 mg/kg; systemically administered (Fig. 22a)
Procedure: (§1) MPTP was administered at a dose (40 mg/kg) that produces loss of striatal dopaminergic terminals and cell bodies in the substantia nigra. Tyrosine hydroxylase was used as a marker for dopamenergic nerve terminals in the substantia nigra. […] Since Compound III-3 is a known inhibitor of MLK3, activation of a downstream substrate of MLK3 was measured in MPTP- treated mice. Levels of phosphorylated MKK4 were measured using a phospho-MKK4 specific antibody (New England Biolabs, Beverly, MA) that recognizes the monophosphorylated form of MKK4 by either immunoblot (Fig. 22b) or ELISA (Fig. 22c). MPTP administration elevated levels of phosphorylated MKK4 in the substantia nigra by up to 5 fold over control levels (Fig. 22b). Peak elevations occurred 4 hrs after administration ofMPTP and coincided with peak CNS levels of MPP^+.

[2] = test system: hypoglossal motor neurons; test: Axotomy-induced motor neuronal dedifferentiation in the adult rat (hypoglossal nerve); format: in vivo; details: for ChAT-Positive Motor Neurons Average/Group / ChAT-Positive Motor Neurons Experimental/Control / ChAT-Positive Motor Neurons %: 7 days; for ChAT-Positive Motor Neurons Experimental/Control: counts ipsilateral/contralateral; for ChAT-Positive Motor Neurons Experimental/Control / ChAT-Positive Motor Neurons %: per animal
Procedure: The left hypoglossal nerve was transected in the neck of adult female Sprague-Dawley rats (120-180 g) under Neumbutol anesthesia, and 50 µl of Compound III-3 or its vehicle (5% Solutol™ HS 15) were applied to a piece of Gelfoam ™ (AJ Buck, Owings Mills, MD), then wrapped around the proximal end of the transected nerve. After 7 days, the animals were anesthetized and perfused with 4% paraformaldehyde in Sorenson's buffer, 0.07 M phosphate, pH 7.2. The brain stem was removed and 40- µm-thick serial coronal sections were cut on a cryostat (Chiu, et al., NeuroReport, 1994, 5, 693-696, which is incorporated herein by reference in its entirety). Every fifth section was processed for ChAT immunohistochemistry as previously described (Chiu, et al., J. Comp. Neurol., 1993, 328, 351-363, which is incorporated herein by reference in its entirety) using a 1:350 dilution of an anti-ChAT monoclonal antibody obtained from Chemicon. Cells that stained clearly above background were counted in stained sections; the number of enumerated cells was expressed as the ratio of the number of ChAT-immunoreactive cells on the axotomized side of the hypoglossal nucleus versus the number of immunoreactive cells on the control (uninjured) side.

lumbar motor neurons = test: Developmentally regulated motor neuronal death in the chick embryo; format: in vivo
Description: The present example is described in detail in Glicksman, et al., J. Neurobiol., 1998, 35, 361-370, which is incorporated herein by reference in its entirety. On E6, a window in the shell of chick eggs (Spafas, Preston, CT) was made and either vehicle (5% Solutol ™ HS 15, polyethylene glycol 660 hydroxysterate; BASF Aktiengesellschaft, Ludwigshafen, Germany (in phosphate-buffered saline, pH 7.2)) or the specified dose of Compound III-3 in the vehicle was applied directly onto the vascularized chorioallantoic membrane-once daily from E6 to E9 as described in Oppenheim, et al., Science, 1991, 251, 1616-1617, which is incorporated herein by reference in its entirety). Embryos were sacrificed at E10 and their spinal cords were removed, fixed in Carnoy's solution (10% glacial acetic acid, 60% absolute ethanol, 30% chloroform), processed for serial paraffin sections, and stained with thionin. Every 20th section of lumbar segments 1-8 was counted according to previously described criteria (Clarke, et al., Methods In Cell Biology: Cell Death, 1995, Schwart & Osborne, Eds., Academic Press, New York, pp.277-321, which is incorporated herein by reference in its entirety).

MLK-3 = biological target: T1, MLK-3 (Homo sapiens, UniProt Q16584); test: JNK activity (immunoprecipitation/kinase assay) in Cos7 cells overexpressing MLK-3 and HA-JNK1; format: cell-based; details: COS-7
T1 construct: A full length cDNA of human MLK-3, MLK-2, or mouse DLK; expressed in transfected cells; host or cells: Cos7
Procedure: Cos7 cells were plated at 80% confluency and transfected with 2 ug each of cDNA constructs using lipofectamine as recommended by the provider (Gibco BRL, Gaithersburg, MD). A full length cDNA of human MLK-3, MLK-2, or mouse DLK or a partial human MLK-1 as described above, and a full length Hemagluttinin A-tagged human JNK1, kindly provided by J. Silvio Gutkind (NIH, Bethesda, MD), were subcloned into the pcDNA3 vector (Invitrogen, San Diego, CA). […] JNK activity from the lysate was assayed by an immunoprecipitation/kinase assay as described below.
Lysate from Cos 7 cells was measured for protein concentration using the Micro BCA kit from Pierce (Rockford, IL) and equal amounts of protein were immunoprecipitated with the HA antibody for 1 hr at 4°C. Immunoprecipitates were pelleted by centrifugation in a microfuge centrifuge for 20 sec, resuspended in Triton buffer, washed by centrifugation 2 more times, followed by a final wash in Kinase buffer (20 mM Hepes pH 7.4,20 mM MgCl2, 2 mM dithiothreitol, 0.1 mM sodium vanadate). The immunoprecipitate was resuspended in kinase buffer containing 1 µM ATP and 5 µCi [γ-^32P]ATP and substrate (1 µg/sample of AP-1 ) and incubated for 15 min at 30°C. […] Samples were heated to 80°C for 5 min and loaded onto 10% SDS-polyacrylamide gels. Proteins were separated by electrophoresis. The gel was dried and quantitation of radioactivity in the AP-1 substrate was performed on a Molecular Dynamics Phosphorimager (Sunnyvale, Ca.).
To determine whether inhibition of the JNK pathway regulated by these kinases correlated with neurotrophic compounds, we evaluated the effect of compounds on JNK activity in Cos7 cells overexpressing HA-JNK and MLK3. After a 48 hr transfection period, the cells were incubated with compounds at 500 nM for 2hr followed by cellular lysis. Lysate was immunoprecipitated and kinase activity measured as previously described. […]

MKK4 = test: MPTP model: phosphorylated MKK4 in the substantia nigra (immunoblot, ELISA); format: in vivo, mice; details: pretreatment; Compound III-3 1 mg/kg (Fig. 22c)
Procedure: as §1

T1 sequence (Q16584 whole entry): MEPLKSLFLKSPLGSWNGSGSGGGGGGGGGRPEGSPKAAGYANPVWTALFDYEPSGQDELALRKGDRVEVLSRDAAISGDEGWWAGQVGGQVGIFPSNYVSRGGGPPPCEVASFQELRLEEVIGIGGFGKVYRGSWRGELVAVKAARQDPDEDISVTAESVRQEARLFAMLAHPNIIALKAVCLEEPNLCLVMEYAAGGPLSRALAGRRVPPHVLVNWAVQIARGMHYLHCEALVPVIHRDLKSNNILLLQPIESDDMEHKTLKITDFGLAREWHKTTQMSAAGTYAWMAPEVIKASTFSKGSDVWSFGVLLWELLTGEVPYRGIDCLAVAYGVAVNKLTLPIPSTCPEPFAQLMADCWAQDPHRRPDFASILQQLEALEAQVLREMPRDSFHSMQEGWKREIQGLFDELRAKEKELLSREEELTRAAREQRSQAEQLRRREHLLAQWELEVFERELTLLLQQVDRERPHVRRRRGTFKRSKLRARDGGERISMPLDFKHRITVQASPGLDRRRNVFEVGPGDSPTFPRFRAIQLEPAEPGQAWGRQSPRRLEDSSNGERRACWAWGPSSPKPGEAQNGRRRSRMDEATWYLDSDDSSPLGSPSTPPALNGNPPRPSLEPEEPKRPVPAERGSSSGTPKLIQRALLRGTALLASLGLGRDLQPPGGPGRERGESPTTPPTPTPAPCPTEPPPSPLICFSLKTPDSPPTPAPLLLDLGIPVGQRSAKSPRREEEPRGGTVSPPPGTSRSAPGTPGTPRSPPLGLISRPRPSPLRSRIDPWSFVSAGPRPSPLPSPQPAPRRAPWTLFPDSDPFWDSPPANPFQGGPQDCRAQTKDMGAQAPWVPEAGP

Structure (SMILES): CCSCc1ccc2c(c1)c1c3c(c4c5cc(CSCC)ccc5n5c4c1n2C1CC(O)(C(=O)OC)C5(C)O1)CNC3=O (centres unmarked) [III-3]
- loss of substantia nigra tyrosine hydroxylase immunoreactive neurons after MPTP lesion [1]: attenuated the loss
- ChAT-Positive Motor Neurons Average/Group ([2]; 3.6 µg in gel foam): 12.84*
- ChAT-Positive Motor Neurons Experimental/Control ([2]; 3.6 µg in gel foam): 55/420 and 72/572
- ChAT-Positive Motor Neurons % ([2]; 3.6 µg in gel foam): 13.10% and 12.59%
- ChAT-Positive Motor Neurons Average/Group ([2]; 25 µg in gel foam): 19.01*
- ChAT-Positive Motor Neurons Experimental/Control ([2]; 25 µg in gel foam): 95/597 and 142/642
- ChAT-Positive Motor Neurons % ([2]; 25 µg in gel foam): 15.91% and 22.12%
- ChAT-Positive Motor Neurons Average/Group ([2]; 50 µg in gel foam): 41.34*
- ChAT-Positive Motor Neurons Experimental/Control ([2]; 50 µg in gel foam): 278/637 and 188/484
- ChAT-Positive Motor Neurons % ([2]; 50 µg in gel foam): 43.85% and 38.84%
- ChAT-Positive Motor Neurons Average/Group ([2]; 100 µg in gel foam): 32.61*
- ChAT-Positive Motor Neurons Experimental/Control ([2]; 100 µg in gel foam): 465/920 and 235/784 and 178/770 and 182/679
- ChAT-Positive Motor Neurons % ([2]; 100 µg in gel foam): 50.54% and 29.98% and 23.12% and 26.80%
- ChAT-Positive Motor Neurons Average/Group ([2]; 200 µg in gel foam): 24.96*
- ChAT-Positive Motor Neurons Experimental/Control ([2]; 200 µg in gel foam): 99/461 and 159/559
- ChAT-Positive Motor Neurons % ([2]; 200 µg in gel foam): 21.48% and 28.44%
- weight loss, mortality, gross tissue damage ([2]; any doses tested, hypoglossal axotomy model): no associated weight loss, mortality, or gross tissue damage
- more ChAT-immunoreactive motor neurons compared to the axotomized, untreated control ([2]; maximally effective dose (50 µg), 7 days postaxotomy): 40%
- motor neurons rescued (lumbar motor neurons; 1.2 and 1.8 µg/day onto the chorioallantoic membrane): 25%
- motor neurons that would normally die rescued (lumbar motor neurons; 2.3 and 7 µg/day onto the chorioallantoic membrane): Forty
- inhibition at 0.5 µM (MLK-3; 500 nM for 2hr, control is JNK activity in the presence of DMSO, read-out: % Inhibition of JNK Activity (average) MLK3 in Cos7 cells): 94%
- inhibition at 0.5 µM (MLK-3; read-out: Overexpressed MLK3 in Cos 7 Cells JNK % inh. 500 nM): 94%
- MPTP-mediated MKK4 phosphorylation (MKK4): partially inhibited
